The subject of the test is human dermal fibroblasts. As to the kind of experiment: Senolytic activity study: SA-beta-galactosidase flow cytometry on a mixed 70% normal / 30% senescent cell population. The settings on record: 72 hours; for Senescent cells left from 30%: normalized to untreated control, n = 4. The test is classed as cell-based. As for the experimental part: Normal and senescent cell populations were obtained from normal human dermal fibroblasts. For the normal cell population, the cells were seeded in cell culture medium (Dulbecco's Modified Eagle Medium supplemented with 10% serum and 1% antibiotics) and allowed to adhere and proliferate in a humidified cell incubator maintaining 37°C and 5% CO2. These were then passaged or collected when 90% confluent. For the senescent cell population, the normal fibroblast cells were at this stage shortly exposed to 200 µM H2O2 followed by normal cell culture medium. Several days later, the cells were treated again with H2O2 to obtain a fully senescent population.
Both normal and senescent populations were mixed into a 70% normal and 30% senescent cell population and represented the treatment population. Afterward, the 70% normal and 30% senescent cell population were seeded in cell culture medium and allowed to adhere in the cell incubator. After adherence, the medium was aspirated, and the treatment medium (Dulbecco's Modified Eagle Medium supplemented with 1% serum) containing the respective compounds at various concentrations (see Table 1) was added to the cells. For assay validation purposes, one condition with treatment medium only (without compound as negative control) and one condition with navitoclax (a known senolytic as positive control); both not included in the presented data. The cells were incubated in the cell incubator for at least 72 hours. Afterward, senescence-associated beta-galactosidase was visualized - a well-known senescence marker- in the cells to quantify the senescence levels using flow cytometry.
Data are normalized to the untreated control (30% senescent cells and 70% normal cells) (n = 4).

[1] abbreviates: 1 µM, 70% normal and 30% senescent human dermal fibroblasts.
Where [2] appears, read: 5 µM, 70% normal and 30% senescent human dermal fibroblasts.
Setting [3] is: 25 µM, 70% normal and 30% senescent human dermal fibroblasts.
The mark [4] stands for this setting: concentration not given, human dermal fibroblasts.

Take `COc1cc(-c2oc3cc(O)ccc3c(=O)c2O)cc(OC)c1OC` [(I'3)]: the Senolytic effect result reads like this: under setting [1], “yes”; under setting [2], “yes”; under setting [3], “yes”.
On to `COc1cc(O)c2c(c1)OC(c1ccc(O)cc1)CC2=O` (centres unmarked) [(I"7)], for which the Senolytic effect entry is reported as “yes” under setting [1], “yes” under setting [2] and “yes” under setting [3].
For `O=c1cc(-c2ccc(O)cc2)oc2c(-c3c(O)cc(O)c4c(=O)cc(-c5ccc(O)cc5)oc34)c(O)cc(O)c12` [(I'9)], the Senolytic effect result reads like this: under setting [1], “yes”; under setting [2], “yes”; under setting [3], “yes”.
Turning to `COc1cc([C@@H]2CC(=O)c3c(O)cc(O)cc3O2)ccc1O` [(I"1)], under setting [3], the Senolytic effect result is reported as “yes” and the “Senescent cells left from 30%” value turned out to be 23%.
`COc1ccc(-c2cc(=O)c3c(O)cc(O[C@@H]4O[C@H](CO)[C@@H](O)[C@H](O)[C@H]4O)cc3o2)cc1O` [(I'11)]: the Senolytic effect entry by setting is: under setting [2], “yes”; under setting [3], “yes”.
For `COc1cc(-c2cc(=O)c3c(O)cc(O)cc3o2)ccc1O` [(I'8)], the Senolytic effect entry under setting [1] is recorded as “yes”, the Senolytic effect entry under setting [2] is given as “yes” and the Senolytic effect result under setting [3] is given as “yes”.
For `O=C1CC(c2ccc(O)c(O)c2)Oc2cc(O)cc(O)c21` (centres unmarked) [(I"11)], the Senolytic effect result under setting [1] was “yes”, the Senolytic effect entry under setting [2] is reported as “yes” and the Senolytic effect entry under setting [4] is reported as “yes”.
In the case of `O=c1c(-c2ccc(O)cc2)coc2cc(O[C@@H]3O[C@H](CO)[C@@H](O)[C@H](O)[C@H]3O)ccc12` [(I'26)], under setting [1], the Senolytic effect result is on record as “yes” and the “Senescent cells left from 30%” value came to 25%. Besides, the Senolytic effect entry under setting [4] was “yes”.
With `COc1cc(C)c2c(=O)c(-c3ccccc3)coc2c1` [(I'4)], the Senolytic effect result is listed as “yes” under setting [1], “yes” under setting [2] and “yes” under setting [3].
As for `O=C1CC(c2ccccc2)Oc2cc(O)ccc21` (centres unmarked) [(I"8)], the Senolytic effect result under setting [1] is given as “yes”, the Senolytic effect result under setting [2] is recorded as “yes” and the Senolytic effect entry under setting [4] was “yes”. In addition, the “Senescent cells left from 30%” value reads like this: under setting [1], 24%; under setting [2], 24%.
Take `COc1c(-c2ccccc2)oc2ccccc2c1=O` [(I'23)]: under setting [3], the Senolytic effect result is reported as “yes” and the “Senescent cells left from 30%” value is 21%. In addition, the Senolytic effect result under setting [4] was “yes”.
As for `COc1cc(-c2coc3cc4c(c(OC)c3c2=O)OCO4)cc(OC)c1OC` [(I'30)], under setting [3], the Senolytic effect result is reported as “yes” and the “Senescent cells left from 30%” value was determined as 26%. In addition, the Senolytic effect result under setting [4] was “yes”.
Regarding `O=C1CC(c2ccccc2)Oc2ccc(O)cc21` (centres unmarked) [(I"5)], the Senolytic effect entry reads like this: under setting [1], “yes”; under setting [2], “yes”; under setting [3], “yes”.
As for `COc1c(O)cc2oc(-c3ccc(O)c(O)c3)cc(=O)c2c1O` [(I'18)], the Senolytic effect result is “yes” under setting [1], “yes” under setting [2] and “yes” under setting [3].
On to `COc1cc(O)c2c(=O)c(O)c(-c3ccc(O)c(O)c3)oc2c1` [(I'20)], for which the Senolytic effect entry under setting [1] is “yes”, the Senolytic effect entry under setting [2] is recorded as “yes” and the Senolytic effect entry under setting [3] was “yes”.
Consider `COc1cc(-c2cc(=O)c3c(O)c(OC)c(OC)c(OC)c3o2)cc(OC)c1OC` [(I'29)], for which the Senolytic effect result was “yes” under setting [1], “yes” under setting [2] and “yes” under setting [3].
Consider `COc1cc2c(=O)c(-c3ccc(O)cc3)coc2cc1O` [(I'28)], for which, under setting [3], the Senolytic effect entry is given as “yes” and the “Senescent cells left from 30%” value came out at 23%. The Senolytic effect entry under setting [4] is on record as “yes”.
Take `CC1OC(Oc2c(-c3cc(O)c(O)c(O)c3)oc3cc(O)cc(O)c3c2=O)C(O)C(O)C1O` (centres unmarked) [(I'14)]: the Senolytic effect result was “yes” under setting [1], “yes” under setting [2] and “yes” under setting [3].
`COc1ccc(-c2cc(=O)c3c(OC)cc(OC)cc3o2)cc1` [(I'5)]: the Senolytic effect result by setting is: under setting [1], “yes”; under setting [2], “yes”; under setting [3], “yes”.
With `O=c1c(O)c(-c2ccc(O)cc2)oc2cc(O)cc(O)c12` [(I'17)], the Senolytic effect entry was “yes” under setting [1], “yes” under setting [2] and “yes” under setting [3].
As for `CC(C)Oc1ccc2c(=O)c(-c3ccccc3)coc2c1` [(I'16)], the Senolytic effect result reads like this: under setting [1], “yes”; under setting [2], “yes”; under setting [3], “yes”.
In the case of `COc1cc2oc(-c3ccccc3)cc(=O)c2c(OC)c1OC` [(I'24)], the Senolytic effect entry is “yes” under setting [2], “yes” under setting [3] and “yes” under setting [4].
Take `COc1cc(O)c2c(c1)OC(c1ccccc1)CC2=O` (centres unmarked) [(I"6)]: the Senolytic effect entry runs as follows: under setting [1], “yes”; under setting [2], “yes”; under setting [3], “yes”.
For the compound `COc1ccc(C2CC(=O)c3c(O)cc(O)cc3O2)cc1O` (centres unmarked) [(I"4)], the Senolytic effect result under setting [1] is on record as “yes”, the Senolytic effect entry under setting [2] is “yes” and the Senolytic effect result under setting [3] is listed as “yes”.
As for `COc1ccc(-c2coc3cc(O)cc(O)c3c2=O)cc1` [(I'7)], the Senolytic effect result by setting is: under setting [1], “yes”; under setting [2], “yes”; under setting [3], “yes”.
In the case of `COc1cc(O)c2c(=O)c(O)c(-c3ccc(O)c(OC)c3)oc2c1` [(I'19)], the Senolytic effect result under setting [1] is given as “yes”, the Senolytic effect result under setting [2] is on record as “yes” and the Senolytic effect result under setting [3] was “yes”.
For the compound `O=c1c(O)c(-c2ccc(O)cc2)oc2c(O)c(O)cc(O)c12` [(I'10)], the Senolytic effect result is reported as “yes” under setting [2] and “yes” under setting [3].
Turning to `COc1ccc(-c2cc(=O)c3c(O)cc(O)cc3o2)cc1O` [(I'27)], the Senolytic effect entry under setting [1] was “yes”, the Senolytic effect result under setting [2] is recorded as “yes” and the Senolytic effect entry under setting [3] is “yes”.
Turning to `O=c1cc(-c2cc(O)c(O)c(O)c2)oc2cc(O)cc(O)c12` [(I'22)], the Senolytic effect result under setting [1] is given as “yes”, the Senolytic effect entry under setting [2] was “yes” and the Senolytic effect entry under setting [3] is “yes”.
Take `O=C1c2c(O)cc(O)cc2OC(c2cc(O)c(O)c(O)c2)C1O` (centres unmarked) [(I"3)]: the Senolytic effect entry runs as follows: under setting [1], “yes”; under setting [2], “yes”; under setting [3], “yes”.
As to `O=C1c2c(O)cc(O)cc2O[C@H](c2cc(O)c(O)c(O)c2)[C@H]1O` [(I"2)], the Senolytic effect result under setting [1] was “yes”, the Senolytic effect result under setting [2] is recorded as “yes” and the Senolytic effect result under setting [3] was “yes”.
Regarding `COc1c(O[C@@H]2O[C@H](CO)[C@@H](O)[C@H](O)[C@H]2O)cc2oc(-c3ccc(O)c(O)c3)c(O)c(=O)c2c1O` [(I'15)], the Senolytic effect entry by setting is: under setting [1], “yes”; under setting [2], “yes”; under setting [3], “yes”.
Turning to `O=c1c(O)c(-c2ccccc2O)oc2cc(O)cc(O)c12` [(I'25)], the Senolytic effect result is “yes” under setting [1], “yes” under setting [2] and “yes” under setting [3].
Take `O=c1c(O)c(-c2cc(O)c(O)c(O)c2)oc2cc(O)ccc12` [(I'21)]: the Senolytic effect result is recorded as “yes” under setting [1], “yes” under setting [2] and “yes” under setting [3].
As to `COc1ccc(-c2cc(=O)c3ccc(O)cc3o2)cc1` [(I'32)], the Senolytic effect entry is, setting by setting: under setting [1], “yes”; under setting [2], “yes”; under setting [3], “yes”.
As for `COc1cc2oc(-c3ccccc3)cc(=O)c2c(O)c1O` [(I'6)], the Senolytic effect entry runs as follows: under setting [1], “yes”; under setting [2], “yes”; under setting [3], “yes”.
With `O=c1cc(-c2ccc(O)c(O)c2)oc2c(O)c(O)ccc12` [(I'1)], the Senolytic effect result by setting is: under setting [1], “yes”; under setting [2], “yes”; under setting [3], “yes”.
On to `O=c1c(-c2ccc(O)c(O)c2)coc2cc(O)ccc12` [(I'2)], for which the Senolytic effect entry is “yes” under setting [1], “yes” under setting [2] and “yes” under setting [3].
On to `COc1cc(C2CC(=O)c3c(O)cc(O)cc3O2)ccc1O` (centres unmarked) [(I"10)], for which, under setting [3], the Senolytic effect entry is listed as “yes” and the “Senescent cells left from 30%” value is 22%. In addition, the Senolytic effect entry under setting [4] is reported as “yes”.
As for `COc1ccc(-c2cc(=O)c3c(OC)c(OC)c(OC)cc3o2)cc1` [(I'33)], the Senolytic effect entry is on record as “yes” under setting [1], “yes” under setting [2] and “yes” under setting [3].

For the origin of these results see patent EP4480471A1, “SPECIFIC COMPOUNDS FOR TREATING SIGNS OF SKIN AGING AND/OR HAIR AGING” (DSM IP Assets B.V., priority 2023, dated 2024).
